In PubChem BioAssay AID1259407 (Chemical Carcinogenesis Research Information System (CCRIS), 2018):
Calls of active or inactive are those of the source. How the calls were made is not given here.

Test system: CCRIS mutagenicity, Ames/micronucleus/aberration tests
Test: CCRIS mutagenicity studies
[1] = Test System: AMES SALMONELLA TYPHIMURIUM, Strain/Indicator: TA98, Metabolic Activation: NONE, Method: PREINCUBATION
[2] = Test System: AMES SALMONELLA TYPHIMURIUM, Strain/Indicator: TA100, Metabolic Activation: NONE, Method: PREINCUBATION
[3] = Test System: AMES SALMONELLA TYPHIMURIUM, Strain/Indicator: TA100, Metabolic Activation: NONE, Method: STANDARD PLATE

ClC1=C(Cl)[C@]2(Cl)[C@H]3[C@H]([C@@H]4C=C[C@H]3C4)[C@@]1(Cl)C2(Cl)Cl
mutagenic call (Test System: AMES SALMONELLA TYPHIMURIUM, Strain/Indicator: TA97, Metabolic Activation: HAMSTER, LIVER, S-9, AROCLOR 1254 (10 OR 30%), Method: PREINCUBATION): inactive; negative
mutagenic call (Test System: AMES SALMONELLA TYPHIMURIUM, Strain/Indicator: TA97, Metabolic Activation: NONE, Method: PREINCUBATION): inactive; negative
mutagenic call (Test System: AMES SALMONELLA TYPHIMURIUM, Strain/Indicator: TA97, Metabolic Activation: NONE, Method: STANDARD PLATE): inactive; negative
mutagenic call (Test System: AMES SALMONELLA TYPHIMURIUM, Strain/Indicator: TA97, Metabolic Activation: RAT, LIVER, S-9, AROCLOR 1254 (10 OR 30%), Method: PREINCUBATION): inactive; negative
mutagenic call (Test System: AMES SALMONELLA TYPHIMURIUM, Strain/Indicator: TA97, Metabolic Activation: RAT, LIVER, S-9, AROCLOR 1254, Method: STANDARD PLATE): inactive; negative
mutagenic call (Test System: AMES SALMONELLA TYPHIMURIUM, Strain/Indicator: TA98, Metabolic Activation: HAMSTER, LIVER, S-9, AROCLOR 1254 (10 OR 30%), Method: PREINCUBATION): inactive; negative
mutagenic call [1]: inactive; negative
mutagenic call (Test System: AMES SALMONELLA TYPHIMURIUM, Strain/Indicator: TA98, Metabolic Activation: NONE, Method: STANDARD PLATE): inactive; negative
mutagenic call (Test System: AMES SALMONELLA TYPHIMURIUM, Strain/Indicator: TA98, Metabolic Activation: RAT, LIVER, S-9, AROCLOR 1254 (10 OR 30%), Method: PREINCUBATION): inactive; negative
mutagenic call (Test System: AMES SALMONELLA TYPHIMURIUM, Strain/Indicator: TA98, Metabolic Activation: RAT, LIVER, S-9, AROCLOR 1254, Method: STANDARD PLATE): inactive; negative
mutagenic call (Test System: AMES SALMONELLA TYPHIMURIUM, Strain/Indicator: TA100, Metabolic Activation: HAMSTER, LIVER, S-9, AROCLOR 1254 (10 OR 30%), Method: PREINCUBATION): inactive; negative
mutagenic call [2]: inactive; negative
mutagenic call [3]: inactive; negative
mutagenic call (Test System: AMES SALMONELLA TYPHIMURIUM, Strain/Indicator: TA100, Metabolic Activation: RAT, LIVER, S-9, AROCLOR 1254 (10 OR 30%), Method: PREINCUBATION): inactive; negative
mutagenic call (Test System: AMES SALMONELLA TYPHIMURIUM, Strain/Indicator: TA100, Metabolic Activation: RAT, LIVER, S-9, AROCLOR 1254, Method: STANDARD PLATE): inactive; negative
mutagenic call (Test System: AMES SALMONELLA TYPHIMURIUM, Strain/Indicator: TA102, Metabolic Activation: NONE, Method: STANDARD PLATE): inactive; negative
mutagenic call (Test System: AMES SALMONELLA TYPHIMURIUM, Strain/Indicator: TA102, Metabolic Activation: RAT, LIVER, S-9, AROCLOR 1254, Method: STANDARD PLATE): inactive; negative
mutagenic call (Test System: AMES SALMONELLA TYPHIMURIUM, Strain/Indicator: TA1535, Metabolic Activation: HAMSTER, LIVER, S-9, AROCLOR 1254 (10 OR 30%), Method: PREINCUBATION): inactive; negative
mutagenic call (Test System: AMES SALMONELLA TYPHIMURIUM, Strain/Indicator: TA1535, Metabolic Activation: NONE, Method: PREINCUBATION): inactive; negative
mutagenic call (Test System: AMES SALMONELLA TYPHIMURIUM, Strain/Indicator: TA1535, Metabolic Activation: RAT, LIVER, S-9, AROCLOR 1254 (10 OR 30%), Method: PREINCUBATION): inactive; negative
mutagenic call (Test System: AMES SALMONELLA TYPHIMURIUM, Strain/Indicator: TA1537, Metabolic Activation: HAMSTER, LIVER, S-9, AROCLOR 1254 (30%), Method: PREINCUBATION): inactive; negative
mutagenic call (Test System: AMES SALMONELLA TYPHIMURIUM, Strain/Indicator: TA1537, Metabolic Activation: NONE, Method: PREINCUBATION): inactive; negative
mutagenic call (Test System: AMES SALMONELLA TYPHIMURIUM, Strain/Indicator: TA1537, Metabolic Activation: RAT, LIVER, S-9, AROCLOR 1254 (30%), Method: PREINCUBATION): inactive; negative

C=C1[C@@H](O)[C@@H]2O[C@]3(CC[C@H](/C=C/[C@@H](C)[C@@H]4CC(C)=C[C@@]5(O[C@H](C[C@@](C)(O)C(=O)O)CCC5O)O4)O3)CC[C@H]2O[C@@H]1[C@@H](O)C[C@H](C)[C@H]1O[C@@]2(CCCCO2)CC[C@H]1C (stereo not given in full)
mutagenic call (End Point: IN VITRO MICRONUCLEUS, Test System: HUMAN PERIPHERAL LYMPHOCYTES, Metabolic Activation: NONE): active; positive
mutagenic call (End Point: In vitro micronucleus, Test System: Chinese hamster ovary (CHO-K1) cells, Metabolic Activation: None): inactive; negative
mutagenic call (End Point: In vitro micronucleus, Test System: Chinese hamster ovary (CHO-K1) cells, Metabolic Activation: Rat, Liver, S-9, Phenobarbital and beta-naphthoflavone): active; positive
mutagenic call (End Point: In vitro micronucleus, Test System: Chinese hamster ovary (CHO-K1) cells, Metabolic Activation: Rat, Liver, S-9, Phenobarbital and beta-naphthoflavone, heat inactivated): inactive; negative
mutagenic call (End Point: In vitro micronucleus, Test System: Chinese hamster ovary (CHO-K1) cells, Metabolic Activation: Rat, Liver, S-9, Phenobarbital and beta-naphthoflavone, Method: FISH (fluorescein isothiocyanate isomer 1 (FITC)-conjugated peptide nucleic acid probe)): active; positive (dose-dependent increase in percentage of centromer-positive micronucle
mutagenic call (End Point: In vitro micronucleus, Test System: Human colon carcinoma Caco-2 cells, Metabolic Activation: None): active; positive
mutagenic call (Test System: AMES SALMONELLA TYPHIMURIUM, Strain/Indicator: TA98, Metabolic Activation: S-9, Method: PREINCUBATION): inactive; negative
mutagenic call (Test System: AMES SALMONELLA TYPHIMURIUM, Strain/Indicator: TA100, Metabolic Activation: S-9, Method: PREINCUBATION): inactive; negative
mutagenic call (Test System: CHINESE HAMSTER V-79, Strain/Indicator: V-79 (HGPRT)/6-THIOGUANINE, Metabolic Activation: NONE): active; positive
mutagenic call (Test System: CHINESE HAMSTER V-79, Strain/Indicator: V-79 (HGPRT)/6-THIOGUANINE, Metabolic Activation: RAT, LIVER, HEPATOCYTES): inactive; negative

O=[N+]([O-])c1ccc(Cl)cc1Cl
mutagenic call (End Point: IN VITRO CHROMOSOMAL ABERRATIONS, Test System: CHL CELLS, Metabolic Activation: RAT, LIVER, S-9, SODIUM PHENOBARBITAL AND 5,6-BENZOFLAVONE): active; positive (structural changes); authors report equivocal results for ploidy chang
mutagenic call [1]: inactive; negative
mutagenic call (Test System: AMES SALMONELLA TYPHIMURIUM, Strain/Indicator: TA98, Metabolic Activation: RAT, LIVER, S-9, KANECHLOR 500, Method: PREINCUBATION): inactive; negative
mutagenic call [2]: active; positive
mutagenic call [3]: inactive; negative
mutagenic call (Test System: AMES SALMONELLA TYPHIMURIUM, Strain/Indicator: TA100, Metabolic Activation: RAT LIVER S-9, PHENOBARBITAL AND BETA-NAPHTHOFLAVONE, Method: PREINCUBATION): active; positive
mutagenic call (Test System: AMES SALMONELLA TYPHIMURIUM, Strain/Indicator: TA100, Metabolic Activation: RAT, LIVER, S-9, KANECHLOR 500, Method: PREINCUBATION): active; positive
mutagenic call (Test System: AMES SALMONELLA TYPHIMURIUM, Strain/Indicator: TA1535, Metabolic Activation: RAT LIVER S-9, PHENOBARBITAL AND BETA-NAPHTHOFLAVONE, Method: PREINCUBATION): inactive; negative
mutagenic call (Test System: AMES SALMONELLA TYPHIMURIUM, Strain/Indicator: TA1537, Metabolic Activation: RAT LIVER S-9, PHENOBARBITAL AND BETA-NAPHTHOFLAVONE, Method: PREINCUBATION): inactive; negative
mutagenic call (Test System: E.COLI, Strain/Indicator: WP2UVRA, Metabolic Activation: NONE, Method: PREINCUBATION): inactive; negative
mutagenic call (Test System: E.COLI, Strain/Indicator: WP2UVRA, Metabolic Activation: RAT LIVER S-9, PHENOBARBITAL AND BETA-NAPHTHOFLAVONE, Method: PREINCUBATION): inactive; negative

C[C@]12CC[C@H](O)CC1=CC[C@@H]1[C@@H]2CC[C@]2(C)C(=O)CC[C@@H]12
mutagenic call (Test System: AMES SALMONELLA TYPHIMURIUM, Strain/Indicator: TA102, Metabolic Activation: RAT LIVER S-9, PHENOBARBITAL AND 5,6-BENZOFLAVONE, Method: STANDARD PLATE): inactive; negative
mutagenic call (Test System: AMES SALMONELLA TYPHIMURIUM, Strain/Indicator: TA2638, Metabolic Activation: RAT LIVER S-9, PHENOBARBITAL AND 5,6-BENZOFLAVONE, Method: STANDARD PLATE): inactive; negative
mutagenic call (Test System: E. COLI, Strain/Indicator: WP2 (PKM101), Metabolic Activation: RAT LIVER S-9, PHENOBARBITAL AND 5,6-BENZOFLAVONE, Method: STANDARD PLATE): inactive; negative
mutagenic call (Test System: E. COLI, Strain/Indicator: WP2 UVRA (PKM101), Metabolic Activation: RAT LIVER S-9, PHENOBARBITAL AND 5,6-BENZOFLAVONE, Method: STANDARD PLATE): inactive; negative
mutagenic call (Test System: UDS RAT HEPATOCYTES, Strain/Indicator: THY INCORP (18-20 HR), Metabolic Activation: NONE, Method: LIQUID SCINTILLATION COUNTING): inactive; negative

C/C=C1\C[C@@H](C)[C@](C)(O)C(=O)OC[C@H]2CCN3CC[C@@H](OC1=O)C23 (stereo not given in full)
mutagenic call (Test System: UDS RAT HEPATOCYTES, Strain/Indicator: THY INCORP, Metabolic Activation: NONE, Method: AUTORADIOGRAPHY): inactive; negative
